Source: US7964531B2, “3-phenoxy-4-pyridazinol derivatives and herbicidal composition containing the same” (Mitsui Chemicals Agro, Inc., priority 2001, dated 2011)

Columns and labels:
Format in all cases: in vivo
Details in all cases: wettable powder applied 3 days after transplanting, judged after 25 days
[1] = test system: annual broad-leaved weeds (Lindernia spp., Rotala indica); assay: Test Example 1: herbicidal effects, paddy-field pot test
In short: (§1)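 Greenhouse, flooded paddy soil; weeds from seed (top 1 cm), C. serotinus from germinated tubers, rice transplanted at 2.2-leaf stage. WP diluted in water, applied to pot day 3 post-transplant. Scored day 25 post-treatment, 0–5 inhibition scale.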

[2] = test system: barnyardgrass (Echinochloa oryzicola Vasing.); assay: as above
In short: as §1

Cyperus serotinus = assay: as above
In short: as §1

Scirpus joncoides = assay: as above
In short: as §1

[3] = test system: transplanted paddy-field rice; assay: Test Example 1: crop injury against transplanted paddy-field rice
In short: as §1

Compound	Herbicidal effects Broad leaf ([1]; chemical dosage 12.5 g/a)	Herbicidal effects Broad leaf ([1]; chemical dosage 25 g/a)	Herbicidal effects Barnyard grass ([2]; chemical dosage 12.5 g/a)	Herbicidal effects Barnyard grass ([2]; chemical dosage 25 g/a)	Herbicidal effects Cyperus serotinus (Cyperus serotinus; chemical dosage 12.5 g/a)	Herbicidal effects Cyperus serotinus (Cyperus serotinus; chemical dosage 25 g/a)	Herbicidal effects Scirpus joncoides (Scirpus joncoides; chemical dosage 12.5 g/a)	Herbicidal effects Scirpus joncoides (Scirpus joncoides; chemical dosage 25 g/a)	Crop injury against transplanted rice ([3]; chemical dosage 12.5 g/a)	Crop injury against transplanted rice ([3]; chemical dosage 25 g/a)	Herbicidal effects Broad leaf ([1]; chemical dosage 10 g/a)	Herbicidal effects Broad leaf ([1]; chemical dosage 20 g/a)	Herbicidal effects Barnyard grass ([2]; chemical dosage 10 g/a)	Herbicidal effects Barnyard grass ([2]; chemical dosage 20 g/a)	Herbicidal effects Cyperus serotinus (Cyperus serotinus; chemical dosage 10 g/a)	Herbicidal effects Cyperus serotinus (Cyperus serotinus; chemical dosage 20 g/a)	Herbicidal effects Scirpus joncoides (Scirpus joncoides; chemical dosage 10 g/a)	Herbicidal effects Scirpus joncoides (Scirpus joncoides; chemical dosage 20 g/a)	Crop injury against transplanted rice ([3]; chemical dosage 10 g/a)	Crop injury against transplanted rice ([3]; chemical dosage 20 g/a)
CCc1cccc(CC)c1Oc1nnc(Cl)cc1O [Example 268]	5 (Growth inhibition rate; 91 to 100%)	5 (Growth inhibition rate; 91 to 100%)	0 (Growth inhibition rate; 0 to 10%)	1 (Growth inhibition rate; 11 to 30%)	5 (Growth inhibition rate; 91 to 100%)	5 (Growth inhibition rate; 91 to 100%)	5 (Growth inhibition rate; 91 to 100%)	5 (Growth inhibition rate; 91 to 100%)	1 (Growth inhibition rate; 11 to 30%)	1 (Growth inhibition rate; 11 to 30%)	–	–	–	–	–	–	–	–	–	–
CC(C)Oc1ccccc1Oc1nnc(Cl)cc1O [Example 123]	–	–	–	–	–	–	–	–	–	–	5 (Growth inhibition rate; 91 to 100%)	5 (Growth inhibition rate; 91 to 100%)	0 (Growth inhibition rate; 0 to 10%)	1 (Growth inhibition rate; 11 to 30%)	4 (Growth inhibition rate; 71 to 90%)	5 (Growth inhibition rate; 91 to 100%)	3 (Growth inhibition rate; 51 to 70%)	4 (Growth inhibition rate; 71 to 90%)	0 (Growth inhibition rate; 0 to 10%)	0 (Growth inhibition rate; 0 to 10%)
Oc1cc(Cl)nnc1Oc1ccccc1Br [Example 51]	4 (Growth inhibition rate; 71 to 90%)	5 (Growth inhibition rate; 91 to 100%)	2 (Growth inhibition rate; 31 to 50%)	2 (Growth inhibition rate; 31 to 50%)	5 (Growth inhibition rate; 91 to 100%)	5 (Growth inhibition rate; 91 to 100%)	3 (Growth inhibition rate; 51 to 70%)	5 (Growth inhibition rate; 91 to 100%)	0 (Growth inhibition rate; 0 to 10%)	0 (Growth inhibition rate; 0 to 10%)	–	–	–	–	–	–	–	–	–	–
Oc1cc(Cl)nnc1Oc1c(C2CC2)cccc1C1CC1 [Example 275]	–	–	–	–	–	–	–	–	–	–	5 (Growth inhibition rate; 91 to 100%)	5 (Growth inhibition rate; 91 to 100%)	4 (Growth inhibition rate; 71 to 90%)	4 (Growth inhibition rate; 71 to 90%)	5 (Growth inhibition rate; 91 to 100%)	5 (Growth inhibition rate; 91 to 100%)	5 (Growth inhibition rate; 91 to 100%)	5 (Growth inhibition rate; 91 to 100%)	1 (Growth inhibition rate; 11 to 30%)	3 (Growth inhibition rate; 51 to 70%)
Oc1cc(Cl)nnc1Oc1ccccc1C1CCCC1 [Example 88]	4 (Growth inhibition rate; 71 to 90%)	5 (Growth inhibition rate; 91 to 100%)	0 (Growth inhibition rate; 0 to 10%)	0 (Growth inhibition rate; 0 to 10%)	5 (Growth inhibition rate; 91 to 100%)	5 (Growth inhibition rate; 91 to 100%)	4 (Growth inhibition rate; 71 to 90%)	5 (Growth inhibition rate; 91 to 100%)	0 (Growth inhibition rate; 0 to 10%)	0 (Growth inhibition rate; 0 to 10%)	–	–	–	–	–	–	–	–	–	–
CS(=O)(=O)Oc1cc(Cl)nnc1Oc1ccccc1C1CC1 [Example 357]	–	–	–	–	–	–	–	–	–	–	5 (Growth inhibition rate; 91 to 100%)	5 (Growth inhibition rate; 91 to 100%)	2 (Growth inhibition rate; 31 to 50%)	3 (Growth inhibition rate; 51 to 70%)	5 (Growth inhibition rate; 91 to 100%)	5 (Growth inhibition rate; 91 to 100%)	5 (Growth inhibition rate; 91 to 100%)	5 (Growth inhibition rate; 91 to 100%)	0 (Growth inhibition rate; 0 to 10%)	0 (Growth inhibition rate; 0 to 10%)
Cc1cccc(Cl)c1Oc1nnc(Cl)cc1O [Example 242]	5 (Growth inhibition rate; 91 to 100%)	5 (Growth inhibition rate; 91 to 100%)	3 (Growth inhibition rate; 51 to 70%)	4 (Growth inhibition rate; 71 to 90%)	5 (Growth inhibition rate; 91 to 100%)	5 (Growth inhibition rate; 91 to 100%)	3 (Growth inhibition rate; 51 to 70%)	4 (Growth inhibition rate; 71 to 90%)	0 (Growth inhibition rate; 0 to 10%)	0 (Growth inhibition rate; 0 to 10%)	–	–	–	–	–	–	–	–	–	–
Oc1cc(Cl)nnc1Oc1c(C2CC2)ccc2ccoc12 [Example 311]	–	–	–	–	–	–	–	–	–	–	5 (Growth inhibition rate; 91 to 100%)	5 (Growth inhibition rate; 91 to 100%)	1 (Growth inhibition rate; 11 to 30%)	3 (Growth inhibition rate; 51 to 70%)	4 (Growth inhibition rate; 71 to 90%)	5 (Growth inhibition rate; 91 to 100%)	4 (Growth inhibition rate; 71 to 90%)	5 (Growth inhibition rate; 91 to 100%)	0 (Growth inhibition rate; 0 to 10%)	0 (Growth inhibition rate; 0 to 10%)
Cc1ccc(C2CC2)c(Oc2nnc(Cl)cc2O)c1C [Example 296]	–	–	–	–	–	–	–	–	–	–	5 (Growth inhibition rate; 91 to 100%)	5 (Growth inhibition rate; 91 to 100%)	1 (Growth inhibition rate; 11 to 30%)	2 (Growth inhibition rate; 31 to 50%)	5 (Growth inhibition rate; 91 to 100%)	5 (Growth inhibition rate; 91 to 100%)	5 (Growth inhibition rate; 91 to 100%)	5 (Growth inhibition rate; 91 to 100%)	0 (Growth inhibition rate; 0 to 10%)	0 (Growth inhibition rate; 0 to 10%)
